Data taken from publication PMC9774939, “Optimization of Pyrazole Compounds as Antibiotic Adjuvants Active against Colistin- and Carbapenem-Resistant Acinetobacter baumannii” (Antibiotics, 2022).

Legend:
[1] = system: Acinetobacter baumannii ATCC 17978; experiment: MAC determination in the presence of subinhibitory colistin; format: cell-based; set-up: key to MAC Aba: -: No synergistic activity; details: for MAC Aba: in the presence of 0.5 × MIC colistin; for MIC/MAC Ratio Aba: minimal ratio of MIC of compound alone to MAC with 0.5 × MIC colistin
Procedure: (§1) The minimum inhibitory concentration (MIC) and minimum bactericidal concentration (MBC) of the compounds were determined in triplicate using Mueller–Hinton broth and a bacterial inoculum of 5 × 10^5 CFU/mL, as recommended by the CLSI [26]. The minimum antibacterial concentration (MAC) of the compounds was determined in the presence of a fixed and subinhibitory concentration of colistin (as mentioned above).

[2] = system: Klebsiella pneumoniae ATCC 13833; experiment: as above; format: cell-based; details: for MAC Kpn: in the presence of 0.5 × MIC colistin; for MIC/MAC Ratio Kpn: minimal ratio of MIC of compound alone to MAC with 0.5 × MIC colistin
Procedure: as §1

Escherichia coli CCUG^T = experiment: as above; format: cell-based; set-up: key to MAC Eco: -: No synergistic activity; details: for MAC Eco: in the presence of 0.5 × MIC colistin; for MIC/MAC Ratio Eco: minimal ratio of MIC of compound alone to MAC with 0.5 × MIC colistin
Procedure: as §1

## N#Cc1c(C(=O)NC23CC4CC(CC(C4)C2)C3)nn(-c2ccccc2)c1-n1cccc1
other
  melting point: 227 to 229 °C

## Cc1c(C(=O)NCc2ccc(F)cc2)nn(-c2ccc(Cl)c(Cl)c2)c1-n1cccc1
other
  melting point: 148 to 151 °C

## CN1CCN(C(=O)c2cnn(C)c2-n2cccc2)CC1 [Compound 3, (4-Methylpiperazin-1-yl)[1-methyl-5-(1H-pyrrol-1-yl)-1H-pyrazol-4-yl]methanone]
other
  melting point: 109 to 111 °C

## CN1CCN(C(=O)c2cnn(-c3ccccc3)c2-n2cccc2)CC1 [Compound 4, (4-Methylpiperazin-1-yl)[1-phenyl-5-(1H-pyrrol-1-yl)-1H-pyrazol-4-yl]methanone]
other
  melting point: 156 to 158 °C

## O=C(NN1CCCCC1)c1cnn(-c2ccccc2)c1-n1cccc1 [Compound 5, 1-Phenyl-N-(piperidin-1-yl)-5-(1H-pyrrol-1-yl)-1H-pyrazole-4-carboxamide]
other
  melting point: 165 to 167 °C

## O=C(Nc1ccc(Cl)cc1)c1cnn(-c2ccccc2)c1-n1cccc1 [Compound 6, N-(4-Chlorophenyl)-1-phenyl-5-(1H-pyrrol-1-yl)-1H-pyrazole-4-carboxamide]
other
  melting point: 197 to 198 °C

## O=C(c1cnn(-c2ccccc2)c1-n1cccc1)N1CCN(c2ncccn2)CC1 [Compound 7, [1-Phenyl-5-(1H-pyrrol-1-yl)-1H-pyrazol-4-yl][4-(pyrimidin-2-yl)piperazin-1-yl]methanone]
other
  melting point: 218 to 219 °C

## COC(=O)CNC(=O)c1cnn(-c2ccccc2)c1-n1cccc1 [Compound 11, Methyl [[[1-Phenyl-5-(1H-pyrrol-1-yl)-1H-pyrazol-4-yl]carbonyl]amino]acetate]
other
  melting point: 139 to 141 °C

## CCOC(=O)[C@H](C)NC(=O)c1cnn(-c2ccccc2)c1-n1cccc1 [Compound 12, Ethyl (S)-2-[[[1-Phenyl-5-(1H-pyrrol-1-yl)-1H-pyrazol-4-yl]carbonyl]amino]propanoate]
other
  melting point: 90 to 92 °C

## CCOC(=O)[C@@H](NC(=O)c1cnn(-c2ccccc2)c1-n1cccc1)C(C)C [Compound 13, Ethyl (S)-3-Methyl-2-[[[1-phenyl-5-(1H-pyrrol-1-yl)-1H-pyrazol-4-yl]carbonyl]amino]butanoate]
other
  melting point: 75 to 78 °C
[1]
  MAC Aba: -
[2]
  MAC Kpn: 32 µg/mL
  MIC/MAC Ratio Kpn: 16
Escherichia coli CCUG^T
  MAC Eco: 64 µg/mL
  MIC/MAC Ratio Eco: 8

## CCOC(=O)[C@H](C)NC(=O)CNC(=O)c1cnn(-c2ccccc2)c1-n1cccc1 [Compound 18, N-[N-[[1-Phenyl-5-(1H-pyrrol-1-yl)-1H-pyrazol-4-yl]carbonyl]glycyl]-L-alanine Ethyl Ester]
other
  melting point: 116 to 117 °C

## CC(C)(C)OC(=O)Nc1c(C(=O)NCc2ccc(Br)cc2)cnn1-c1ccccc1 [Compound 20, N-(4-Bromobenzyl)-5-(tert-butoxycarbonylamino)-1-phenyl-1H-pyrazole-4-carboxamide]
other
  melting point: 175 to 176 °C
[1]
  MAC Aba: 64 µg/mL
  MIC/MAC Ratio Aba: 8
[2]
  MAC Kpn: 64 µg/mL
  MIC/MAC Ratio Kpn: 8
Escherichia coli CCUG^T
  MAC Eco: -

## CC(C)(C)OC(=O)Nc1c(C(=O)NCc2ccc(Br)cc2)cnn1-c1ccc([N+](=O)[O-])cc1 [Compound 21, N-(4-Bromobenzyl)-5-(tert-butoxycarbonylamino)-1-(4-nitrophenyl)-1H-pyrazole-4-carboxamide]
other
  melting point: 169 to 171 °C

## CC(C)(C)OC(=O)Nc1c(C(=O)NCc2ccc(-c3ccc(OC(F)(F)F)cc3)cn2)cnn1-c1ccc([N+](=O)[O-])cc1 [Compound 22, 5-(tert-Butoxycarbonylamino)-1-(4-nitrophenyl)-N-[[5-(4-trifluoromethoxyphenyl)pyridin-2-yl]methyl]-1H-pyrazole-4-carboxamide]
other
  melting point: 197 to 199 °C
[1]
  MAC Aba: 64 µg/mL
  MIC/MAC Ratio Aba: 8
[2]
  MAC Kpn: 64 µg/mL
  MIC/MAC Ratio Kpn: 8
Escherichia coli CCUG^T
  MAC Eco: -

## O=C(NC12CC3CC(CC(O)(C3)C1)C2)c1cc(-n2cccc2)n(-c2ccccc2)n1 [Compound 23, N-(Adamantan-3-ol-1-yl)-1-phenyl-5-(1H-pyrrol-1-yl)-1H-pyrazole-3-carboxamide]
other
  melting point: 217 to 221 °C

## CC(C)(C)OC(=O)[C@H](Cc1ccccc1)NC(=O)c1nn(-c2ccccc2)c(-n2cccc2)c1C#N [Compound 25, tert-Butyl (S)-3-Phenyl-2-[[[4-cyano-1-phenyl-5-(1H-pyrrol-1-yl)-1H-pyrazol-3-yl]carbonyl]amino]propanoate]
other
  melting point: 93 to 94 °C

## CCOC(=O)N1CCN(C(=O)c2nn(-c3ccccc3)c(-n3cccc3)c2C)CC1 [Compound 26, (4-Ethoxycarbonylpiperazin-1-yl)[4-methyl-1-phenyl-5-(1H-pyrrol-1-yl)-1H-pyrazol-3-yl]methanone]
other
  melting point: 130 to 131 °C

## Cc1c(C(=O)NC23CC4CC(CC(O)(C4)C2)C3)nn(-c2ccccc2)c1-n1cccc1 [Compound 27, N-(Adamantan-3-ol-1-yl)-4-methyl-1-phenyl-5-(1H-pyrrol-1-yl)-1H-pyrazole-3-carboxamide]
other
  melting point: 137 to 138 °C
[1]
  MAC Aba: -
[2]
  MAC Kpn: 32 µg/mL
  MIC/MAC Ratio Kpn: 16
Escherichia coli CCUG^T
  MAC Eco: 32 µg/mL
  MIC/MAC Ratio Eco: 16

## Cc1c(C(=O)N2CCN(C)CC2)nn(-c2ccc(Cl)cc2)c1-n1cccc1 [Compound 28, [1-(4-Chlorophenyl)-4-methyl-5-(1H-pyrrol-1-yl)-1H-pyrazol-3-yl](4-methylpiperazin-1-yl)methanone]
other
  melting point: 178 to 182 °C
[1]
  MAC Aba: 64 µg/mL
  MIC/MAC Ratio Aba: 8
[2]
  MAC Kpn: 64 µg/mL
  MIC/MAC Ratio Kpn: 8
Escherichia coli CCUG^T
  MAC Eco: 64 µg/mL
  MIC/MAC Ratio Eco: 8

## Cc1c(C(=O)NCc2ccc3c(c2)OCO3)nn(-c2ccc(Cl)cc2)c1-n1cccc1 [Compound 29, N-(Benzo[d][1,3]dioxol-5-ylmethyl)-1-(4-chlorophenyl)-4-methyl-5-(1H-pyrrol-1-yl)-1H-pyrazole-3-carboxamide]
other
  melting point: 144 to 148 °C

## Cc1c(C(=O)N2CCOCC2)nn(-c2ccc(Cl)cc2)c1-n1cccc1 [Compound 30, [1-(4-Chlorophenyl)-4-methyl-5-(1H-pyrrol-1-yl)-1H-pyrazol-3-yl](morpholin-4-yl)methanone]
other
  melting point: 174 to 177 °C

## Cc1c(C(=O)N(CCO)Cc2ccccc2)nn(-c2ccc(Cl)cc2)c1-n1cccc1 [Compound 31, N-Benzyl-1-(4-chlorophenyl)-N-(2-hydroxyethyl)-4-methyl-5-(1H-pyrrol-1-yl)-1H-pyrazole-3-carboxamide]
[1]
  MAC Aba: 32 µg/mL
  MIC/MAC Ratio Aba: 16
[2]
  MAC Kpn: 16 µg/mL
  MIC/MAC Ratio Kpn: 32
Escherichia coli CCUG^T
  MAC Eco: 32 µg/mL
  MIC/MAC Ratio Eco: 16

## CCOC(=O)c1ccc(NC(=O)c2nn(-c3ccc(Cl)cc3)c(-n3cccc3)c2C)cc1 [Compound 32, Ethyl 4-[[[1-(4-Chlorophenyl)-4-methyl-5-(1H-pyrrol-1-yl)-1H-pyrazol-3-yl]carbonyl]amino]benzoate]
other
  melting point: 168 to 170 °C

## Cc1c(C(=O)NCc2ccncc2)nn(-c2ccc(Cl)cc2)c1-n1cccc1 [Compound 33, 1-(4-Chlorophenyl)-4-methyl-N-(pyridin-4-ylmethyl)-5-(1H-pyrrol-1-yl)-1H-pyrazole-3-carboxamide]
other
  melting point: 189 to 193 °C

## Cc1c(C(=O)N(C)Cc2ccccc2)nn(-c2ccc(Cl)cc2)c1-n1cccc1 [Compound 34, N-Benzyl-1-(4-chlorophenyl)-N,4-dimethyl-5-(1H-pyrrol-1-yl)-1H-pyrazole-3-carboxamide]
other
  melting point: 104 to 108 °C

## N#Cc1c(C(=O)NCc2ccncc2)nn(-c2ccc(Cl)cc2)c1-n1cccc1 [Compound 35, 1-(4-Chlorophenyl)-4-cyano-N-(pyridin-4-ylmethyl)-5-(1H-pyrrol-1-yl)-1H-pyrazole-3-carboxamide]
other
  melting point: 85 to 88 °C

## Cc1c(C(=O)Nc2nc(-c3ccc(F)cc3)cs2)nn(-c2ccc(Cl)c(Cl)c2)c1-n1cccc1 [Compound 37, 1-(3,4-Dichlorophenyl)-N-[4-(4-fluorophenyl)thiazol-2-yl]-4-methyl-5-(1H-pyrrol-1-yl)-1H-pyrazole-3-carboxamide]
other
  melting point: 207 to 210 °C

## Cc1c(C(=O)NCc2ccc3c(c2)OCO3)nn(-c2ccc(Cl)c(Cl)c2)c1-n1c(C)ccc1C [Compound 38, N-(Benzo[d][1,3]dioxol-5-ylmethyl)-1-(3,4-dichlorophenyl)-4-methyl-5-(2,5-dimethyl-1H-pyrrol-1-yl)-1H-pyrazole-3-carboxamide]
other
  melting point: 141 to 145 °C

## COC(=O)c1cccc(NC(=O)c2nn(-c3ccc(Cl)cc3)c(-n3cccc3)c2C)c1 [Compound 41, Methyl 3-[[[1-(4-Chlorophenyl)-4-methyl-5-(1H-pyrrol-1-yl)-1H-pyrazol-3-yl]carbonyl]amino]benzoate]
other
  melting point: 158 to 160 °C

## COC(=O)c1ccccc1NC(=O)c1nn(-c2ccc(Cl)cc2)c(-n2cccc2)c1C [Compound 43, Methyl 2-[[[1-(4-Chlorophenyl)-4-methyl-5-(1H-pyrrol-1-yl)-1H-pyrazol-3-yl]carbonyl]amino]benzoate]
other
  melting point: 217 to 219 °C

## Cc1c(C(=O)Nc2ccc(S(N)(=O)=O)cc2)nn(-c2ccc(Cl)cc2)c1-n1cccc1 [Compound 46, 1-(4-Chlorophenyl)-4-methyl-5-(1H-pyrrol-1-yl)-N-(4-sulfamoylphenyl)-1H-pyrazole-3-carboxamide]
other
  melting point: 238 to 239 °C

## CSc1ccc(NC(=O)c2nn(-c3ccc(Cl)cc3)c(-n3cccc3)c2C)cc1 [Compound 48, 1-(4-Chlorophenyl)-N-(4-methylthiophenyl)-4-methyl-5-(1H-pyrrol-1-yl)-1H-pyrazole-3-carboxamide]
other
  melting point: 102 to 105 °C
